Measurements as given in patent US7449495B2, “Retinoid derivatives with antiangiogenic, antitumoral and proapoptotic activities” (Sigma-Tau Industrie Farmaceutiche Riunite S.p.A., priority 2001, dated 2008).

Tests used:
[1] = test system: human prostate carcinoma PC3 cells; assay: Cyto-fluorometric cell cycle analysis, PC3; assay type: cell-based; set-up: key to APOPTOSIS: % of cells (cell cycle phase percentages)
Method: To evaluate the effect of the compound according to the invention, on various phases of the cell cycle, cyto-fluorometric cell cycle analyses were performed.
On the third day of treatment 500.000 cells were sampled, centrifuged at 180×g for 5 minutes, washed twice in calcium and magnesium free PBS. The cells (1×10^6/ml of fixative) were fixed for at least 1 hour in a fixation mixture comprised of acetone/methanol 1:4 v/v maintained at −20° C. and 50% of calcium and magnesium free PBS; then the cells were centrifuged, washed in calcium and magnesium free PBS, and again centrifuged and washed. The cellular precipitate was incubated for 30 minutes in the dark at room temperature with 200 μl of […] (100 μg/ml) and 200 μl of RNAse (150 KU/mg).
The samples with filtered through nylon filters (60-80 μm diameter) and analysed by cyto-fluorimeter FACScan (Becton Dickinson), acquiring 20000 events/sample, at an excitation wavelength of 488 nm and emission wavelength of 620 nm. The analysis of the percentages of the cell cycle phases was performed using a dedicated software package, Modfit v. 2.0 (Becton Dickinson).
For the cell cycle analysis of prostate carcinoma cells PC3, the cells were seeded in plates at a density of 500000 cells/ml in RPMI medium. After treatment with compound ST1926 for 24 hours, cells were analysed as described above.

[2] = test system: 3LL murine Lewis lung carcinoma; assay: Antitumoral activity in murine Lewis lung carcinoma model 3LL; assay type: in vivo, C57BL/6J mice; conditions: 10 mg/kg po, qdx5x3w
Method: Murine pulmonary adenocarcinoma Madison 109 cells (M109) were maintained by s.c. passage of tumor fragments. The day of inoculation, the cell suspension was injected i.m. in the rear left limb of a 20 g male BALB/c mouse at a density of 3×10^5 cells/mouse. 3LL murine Lewis lung carcinoma was routinely maintained by i.m. passages (every 10-14 days) of 1×10^5 cells/mouse in C57BL/6J mice. For antitumor activity experiments, tumors were excised from donor mice and after mechanical desegregation and enzymatic digestion tumor cell viability was assessed by the trypan blue dye exclusion test. Then, 1×10^5 cells/100 μl/mouse were injected i.m. into the right hind leg muscle of C57BL/6J mice.
Tumor dimension measurements were performed using a digital calliper (Vernier Caliper) from the day in which the mass became measurable, twice weekly. The tumor mass was assessed from the size of the two principal dimensions (length and breadth), expressed in mm, applying the formula (length×breadth^2)/2 that is, the tumor volume in mm3. For every experimental group the percentage of inhibition of tumor volume (TVI %) was calculated, with respect to that of the control that is (100−(T/C %). TVI was evaluated 2 days after the final administration of ST1926.
The mean survival time (MST) was also measured and the increase in mean life-span expressed as ILS % (increase of life span) calculated as (MSTT/MSTC)×100−100.
The comparison between the values of TVI and of survival time, obtained for each group were performed with the non parametric Mann Whitney test for non paired data, using the Instat software from GraphPad inc. […]
The mice (8 for each group) were weighed prior to each treatment, firstly, so as to be able to administer the correct quantity of substance, based on the eventual variations in weight observed throughout the period of drug administration, and also to be able to register the maximum weight loss throughout the treatment (BWL % max).

[3] = PC3, 0.02 μM, 24 hours of treatment and 0 hours of recovery
[4] = PC3, 0.02 μM, 24 hours of treatment and 24 hours of recovery
[5] = PC3, 0.05 μM, 24 hours of treatment and 0 hours of recovery
[6] = PC3, 0.05 μM, 24 hours of treatment and 24 hours of recovery
[7] = PC3, 0.1 μM, 24 hours of treatment and 0 hours of recovery
[8] = PC3, 0.1 μM, 24 hours of treatment and 24 hours of recovery
[9] = PC3, 0.2 μM, 24 hours of treatment and 24 hours of recovery

In the case of `O=C(O)/C=C/c1ccc(-c2ccc(O)c(C34CC5CC(CC(C5)C3)C4)c2)cc1` [ST1926, E-4-(3-(1-adamantyl)-4-hydroxyphenyl)cinnamic acid], the APOPTOSIS [1, 3] is reported as 9, the G0/G1 [1, 3] is reported as 54.0 and the “G2 + M” value [1, 3] is reported as 21.8. For the same compound, the S [1, 3] was 24.2, the APOPTOSIS [1, 4] was 13 and the G0/G1 [1, 4] was 44.6. For the same compound, the “G2 + M” value [1, 4] was 25.0, the S [1, 4] was 30.4 and the APOPTOSIS [1, 5] was 11. The G0/G1 [1, 5] was 55.8, the “G2 + M” value [1, 5] was 20.6 and the S [1, 5] was 23.6. For the same compound, the APOPTOSIS [1, 6] was 15, the G0/G1 [1, 6] was 44.9 and the “G2 + M” value [1, 6] was 25.6. For the same compound, the S [1, 6] was 29.5, the APOPTOSIS [1, 7] was 10 and the G0/G1 [1, 7] was 52.0. For the same compound, the “G2 + M” value [1, 7] was 28.0, the S [1, 7] was 35.4 and the APOPTOSIS [1, 8] was 10. For the same compound, the G0/G1 [1, 8] was 45.8, the “G2 + M” value [1, 8] was 28.4 and the S [1, 8] was 25.8. It also gave an APOPTOSIS ([1]; PC3, 0.2 μM, 24 hours of treatment and 0 hours of recovery) of 13.5, an APOPTOSIS [1, 9] of 13 and a G0/G1 [1, 9] of 31.8. For the same compound, the “G2 + M” value [1, 9] was 25.0, the S [1, 9] was 43.2 and the “effect on PC3 cells at the end of treatment (in words)” value ([1]; PC3, 0.4 μM, 24 hours of treatment) was “induced apoptosis”. For the same compound, the APOPTOSIS ([1]; PC3, 0.4 μM, 24 hours of treatment and 0 hours of recovery) was 25, the APOPTOSIS ([1]; PC3, 0.4 μM, 24 hours of treatment and 24 hours of recovery) was 26 and the “BWL % Max” value [2] was 7%. For the same compound, the ILS % [2] was 52% and the “MST (range days)” value [2] was “*32 (24-42) days”.
